Structures can show the parent of a compound that is named as a salt.
biological target: T1, human renal renin (Homo sapiens, UniProt P00797); experiment: in vitro inhibition of human renal renin (angiotensin I formed measured by radioimmunoassay); type: biochemical; conditions: human renal renin with renin substrate (human angiotensinogen), 37° C., pH 6.0
T1 construct: with human renal renin, free from acid proteolytic activity; from tissue; host or cells: human kidney (concluded from the word 'renal')
T1 sequence (P00797 67-406): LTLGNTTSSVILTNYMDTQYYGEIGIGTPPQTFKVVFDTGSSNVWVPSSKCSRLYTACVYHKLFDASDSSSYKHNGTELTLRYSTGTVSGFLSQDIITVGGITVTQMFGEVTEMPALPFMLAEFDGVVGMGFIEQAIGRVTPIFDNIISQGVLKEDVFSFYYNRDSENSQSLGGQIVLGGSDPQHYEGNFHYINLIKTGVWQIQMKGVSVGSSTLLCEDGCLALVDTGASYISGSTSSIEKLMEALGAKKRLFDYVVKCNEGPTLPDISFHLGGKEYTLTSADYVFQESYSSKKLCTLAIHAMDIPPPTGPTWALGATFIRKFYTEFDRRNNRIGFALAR

Row | SMILES | IC50 [nM]
1 | C[C@H](NC(=O)[C@H](Cc1ccccc1)NC(=O)OC(C)(C)C)C(=O)N[C@@H](CC1CCCCC1)C(O)CO (stereo partly drawn) [Example 3, Boc-Phe-Ala Amide of 3(S)-Amino-4-cyclohexyl-1,2(R,S)-dihydroxybutane] | 4000
2 | CC(C)C[C@H](O)[C@H](O)[C@H](CC1CCCCC1)NC(=O)[C@H](Cc1cnc[nH]1)NC(=O)[C@H](Cc1ccccc1)NC(=O)C(C)(C)CNC(=O)OCc1ccccc1 [Example 81] | 0.6
3 | CCOC(=O)N[C@@H](Cc1ccccc1)C(=O)N(C)[C@@H](Cc1c[nH]cn1)C(=O)N[C@@H](CC1CCCCC1)[C@@H](O)[C@@H](O)CC(C)C [Example 39, Ethoxycarbonyl-Phe-MeHis Amide of 2(S)-Amino-1-cyclohexyl-3(R),4(S)-dihydroxy-6-methylheptane] | 2
4 | CC(C)C[C@H](O)[C@H](O)[C@H](CC1CCCCC1)NC(=O)[C@H](Cc1c[nH]cn1)NC(=O)[C@H](Cc1ccccc1)NC(=O)C(C)(C)CN [Example 82, [(α, α-Di-Me)-β-Ala]-Phe-His Amide of 2(S)-Amino-1-cyclohexyl-3(R),4(S)-dihydroxy-6-methylheptane Bis acetic acid salt] | 0.6

From patent US4845079A, “Peptidylaminodiols” (priority 1988, dated 1989)
